Measured values: patent US8134015B2, “Compound inhibiting in vivo phosphorous transport and medicine containing the same” (Kyowa Hakko Kirin Co., Ltd., priority 2003, dated 2012)

target: T1, rat NaPi-2b (Rattus norvegicus, UniProt Q9JJ09); assay: Sodium-dependent phosphate uptake of Xenopus oocytes which expressed NaPi-2b (32P); format: cell-based; conditions: Xenopus oocytes expressing rat NaPi-2b, 32P radioactive phosphorus; read-out: IC50 (phosphate uptake inhibitory activity)
T1 construct: expressed in transfected cells; host or cells: Xenopus oocytes injected with cRNA
T1 sequence (Q9JJ09 1-695): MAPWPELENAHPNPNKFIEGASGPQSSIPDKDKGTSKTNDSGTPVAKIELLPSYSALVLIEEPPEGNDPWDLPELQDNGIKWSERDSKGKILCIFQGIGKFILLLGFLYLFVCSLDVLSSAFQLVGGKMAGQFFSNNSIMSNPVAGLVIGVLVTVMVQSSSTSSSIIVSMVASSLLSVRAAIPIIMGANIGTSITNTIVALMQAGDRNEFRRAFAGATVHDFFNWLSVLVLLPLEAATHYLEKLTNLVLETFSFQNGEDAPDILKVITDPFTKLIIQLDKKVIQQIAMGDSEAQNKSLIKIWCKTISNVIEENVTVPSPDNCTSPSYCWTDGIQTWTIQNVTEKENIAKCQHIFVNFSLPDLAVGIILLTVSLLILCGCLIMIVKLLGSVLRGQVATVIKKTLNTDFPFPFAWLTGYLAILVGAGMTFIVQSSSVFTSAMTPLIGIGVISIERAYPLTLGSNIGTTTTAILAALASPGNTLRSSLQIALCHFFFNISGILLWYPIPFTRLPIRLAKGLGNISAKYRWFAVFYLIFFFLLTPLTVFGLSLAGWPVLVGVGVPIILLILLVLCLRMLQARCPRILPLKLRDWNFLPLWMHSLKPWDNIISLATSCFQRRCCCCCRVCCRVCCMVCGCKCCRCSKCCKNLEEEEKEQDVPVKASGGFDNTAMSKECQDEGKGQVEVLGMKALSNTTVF
How it was run: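 Percent inhibition at 300 μM and 100 μM comes from the same inhibition curve of 32P uptake. Assay used oocytes expressing rat NaPi-2b after 2 days of culture.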

Row | SMILES | IC50 [nM]
1 | O=C(Nc1ccc(Cl)cc1C(=O)N/N=C/c1cccc(O)c1)c1cccc(CN2CCC(N3CCCCC3)CC2)c1 [Compound 376, 3-[1,4′]Bipiperidinyl-1′-ylmethyl-N-[4-chloro-2-(3-hydroxy-benzylidene-hydrazinocarbonyl)-phenyl]-benzamide] | 21000
2 | O=C(Nc1ccc(Cl)cc1C(=O)N/N=C/c1ccc(O)cc1)c1cccc(CN2CCC(N3CCCCC3)CC2)c1 [Compound 377, 3-[1,4′]Bipiperidinyl-1′-ylmethyl-N-[4-chloro-2-(4-hydroxy-benzylidene-hydrazinocarbonyl)-phenyl]-benzamide] | 9650
3 | COc1cccc(CNNC(=O)c2cc(Br)ccc2NC(=O)c2ccc(CN3CCC(N4CCCCC4)CC3)cc2)c1 [Compound 378, 4-[1,4′]Bipiperidinyl-1′-ylmethyl-N-{4-bromo-2-[N′-(3-methoxy-benzyl)-hydrazinocarbonyl]-phenyl}-benzamide] | 4350
4 | CCN(CC)CCN(C)Cc1cccc(C(=O)Nc2ccc(Cl)cc2C(=O)N/N=C/c2cccc(F)c2)c1 [Compound 379, N-[4-Chloro-2-(3-fluoro-benzylidene-hydrazinocarbonyl)-phenyl]-3-{[(2-diethylamino-ethyl)-methyl-amino]-methyl}-benzamide] | 970
5 | CCN(CC)CCN(C)Cc1cccc(C(=O)Nc2ccc(Cl)cc2C(=O)N/N=C/c2ccc(F)cc2)c1 [Compound 380, N-[4-Chloro-2-(4-fluoro-benzylidene-hydrazinocarbonyl)-phenyl]-3-{[(2-diethylamino-ethyl)-methyl-amino]-methyl}-benzamide] | 350
6 | CCN(CC)CCN(C)Cc1cccc(C(=O)Nc2ccc(Cl)cc2C(=O)N/N=C/c2cccc(C)c2)c1 [Compound 381, N-[4-Chloro-2-(3-methyl-benzylidene-hydrazinocarbonyl)-phenyl]-3-{[(2-diethylamino-ethyl)-methyl-amino]-methyl}-benzamide] | 1000
7 | CCN(CC)CCN(C)Cc1cccc(C(=O)Nc2ccc(Cl)cc2C(=O)N/N=C/c2ccc(C)cc2)c1 [Compound 382, N-[4-Chloro-2-(4-methyl-benzylidene-hydrazinocarbonyl)-phenyl]-3-{[(2-diethylamino-ethyl)-methyl-amino]-methyl}-benzamide] | 1040
8 | CCN(CC)CCN(C)Cc1cccc(C(=O)Nc2ccc(Cl)cc2C(=O)N/N=C/c2ccc(C)c(C)c2)c1 [Compound 383, N-[4-Chloro-2-(3,4-dimethyl-benzylidene-hydrazinocarbonyl)-phenyl]-3-{[(2-diethylamino-ethyl)-methyl-amino]-methyl}-benzamide] | 1980
9 | CCN(CC)CCN(C)Cc1cccc(C(=O)Nc2ccc(Cl)cc2C(=O)N/N=C/c2ccc(Cl)c(C(F)(F)F)c2)c1 [Compound 384, N-[4-Chloro-2-(4-chloro-3-trifluoromethyl-benzylidene-hydrazinocarbonyl)-phenyl]-3-{[(2-diethylamino-ethyl)-methyl-amino]-methyl}-benzamide] | 250
10 | CCN(CC)CCN(C)Cc1cccc(C(=O)Nc2ccc(Cl)cc2C(=O)N/N=C/c2cccc(OC)c2)c1 [Compound 385, N-[4-Chloro-2-(3-methoxy-benzylidene-hydrazinocarbonyl)-phenyl]-3-{[(2-diethylamino-ethyl)-methyl-amino]-methyl}-benzamide] | 310
11 | CCN(CC)CCN(C)Cc1cccc(C(=O)Nc2ccc(Cl)cc2C(=O)N/N=C/c2ccc(OC)cc2)c1 [Compound 386, N-[4-Chloro-2-(4-methoxy-benzylidene-hydrazinocarbonyl)-phenyl]-3-{[(2-diethylamino-ethyl)-methyl-amino]-methyl}-benzamide] | < 3000
12 | CCN(CC)CCN(C)Cc1cccc(C(=O)Nc2ccc(Cl)cc2C(=O)N/N=C/c2cccc(O)c2)c1 [Compound 387, N-[4-Chloro-2-(3-hydroxy-benzylidene-hydrazinocarbonyl)-phenyl]-3-{[(2-diethylamino-ethyl)-methyl-amino]-methyl}-benzamide] | 6450
13 | CCN(CC)CCN(C)Cc1cccc(C(=O)Nc2ccc(Cl)cc2C(=O)N/N=C/c2ccc(O)cc2)c1 [Compound 388, N-[4-Chloro-2-(4-hydroxy-benzylidene-hydrazinocarbonyl)-phenyl]-3-{[(2-diethylamino-ethyl)-methyl-amino]-methyl}-benzamide] | 19700
14 | O=C(Nc1ccc(Cl)cc1C(=O)N/N=C/c1cccc(F)c1)c1cccc(CSc2nc[nH]n2)c1 [Compound 389, N-[4-Chloro-2-(3-fluoro-benzylidene-hydrazinocarbonyl)-phenyl]-3-(1H-[1,2,4]triazol-3-ylsulfanylmethyl)-benzamide] | 1090
15 | O=C(Nc1ccc(Cl)cc1C(=O)N/N=C/c1ccc(F)cc1)c1cccc(CSc2nc[nH]n2)c1 [Compound 390, N-[4-Chloro-2-(4-fluoro-benzylidene-hydrazinocarbonyl)-phenyl]-3-(1H-[1,2,4]triazol-3-ylsulfanylmethyl)-benzamide] | 450
16 | Cc1cccc(/C=N/NC(=O)c2cc(Cl)ccc2NC(=O)c2cccc(CSc3nc[nH]n3)c2)c1 [Compound 391, N-[4-Chloro-2-(3-methyl-benzylidene-hydrazinocarbonyl)-phenyl]-3-(1H-[1,2,4]triazol-3-ylsulfanylmethyl)-benzamide] | 1020
17 | Cc1ccc(/C=N/NC(=O)c2cc(Cl)ccc2NC(=O)c2cccc(CSc3nc[nH]n3)c2)cc1 [Compound 392, N-[4-Chloro-2-(4-methyl-benzylidene-hydrazinocarbonyl)-phenyl]-3-(1H-[1,2,4]triazol-3-ylsulfanylmethyl)-benzamide] | 1420
18 | O=C(Nc1ccc(Cl)cc1C(=O)N/N=C/c1ccc(Cl)c(C(F)(F)F)c1)c1cccc(CSc2nc[nH]n2)c1 [Compound 393, N-[4-Chloro-2-(4-chloro-3-trifluoromethyl-benzylidene-hydrazinocarbonyl)-phenyl]-3-(1H-[1,2,4]triazol-3-ylsulfanylmethyl)-benzamide] | 520
19 | CN(CCO)Cc1cccc(C(=O)Nc2ccc(Cl)cc2C(=O)N/N=C/c2cccc(F)c2)c1 [Compound 394, N-[4-Chloro-2-(3-fluoro-benzylidene-hydrazinocarbonyl)-phenyl]-3-{[(2-hydroxy-ethyl)-methyl-amino]-methyl}-benzamide] | 950
20 | CN(CCO)Cc1cccc(C(=O)Nc2ccc(Cl)cc2C(=O)N/N=C/c2ccc(F)cc2)c1 [Compound 395, N-[4-Chloro-2-(4-fluoro-benzylidene-hydrazinocarbonyl)-phenyl]-3-{[(2-hydroxy-ethyl)-methyl-amino]-methyl}-benzamide] | 8550
21 | Cc1cccc(/C=N/NC(=O)c2cc(Cl)ccc2NC(=O)c2cccc(CN(C)CCO)c2)c1 [Compound 396, N-[4-Chloro-2-(3-methyl-benzylidene-hydrazinocarbonyl)-phenyl]-3-{[(2-hydroxy-ethyl)-methyl-amino]-methyl}-benzamide] | 8190
22 | Cc1ccc(/C=N/NC(=O)c2cc(Cl)ccc2NC(=O)c2cccc(CN(C)CCO)c2)cc1 [Compound 397, N-[4-Chloro-2-(4-methyl-benzylidene-hydrazinocarbonyl)-phenyl]-3-{[(2-hydroxy-ethyl)-methyl-amino]-methyl}-benzamide] | 9250
23 | Cc1ccc(/C=N/NC(=O)c2cc(Cl)ccc2NC(=O)c2cccc(CN(C)CCO)c2)cc1C [Compound 398, N-[4-Chloro-2-(3,4-dimethyl-benzylidene-hydrazinocarbonyl)-phenyl]-3-{[(2-hydroxy-ethyl)-methyl-amino]-methyl}-benzamide] | < 300
24 | CN(CCO)Cc1cccc(C(=O)Nc2ccc(Cl)cc2C(=O)N/N=C/c2ccc(Cl)c(C(F)(F)F)c2)c1 [Compound 399, N-[4-Chloro-2-(4-chloro-3-trifluoromethyl-benzylidene-hydrazinocarbonyl)-phenyl]-3-{[(2-hydroxy-ethyl)-methyl-amino]-methyl}-benzamide] | 3670
25 | COc1cccc(/C=N/NC(=O)c2cc(Cl)ccc2NC(=O)c2cccc(CN(C)CCO)c2)c1 [Compound 400, N-[4-Chloro-2-(3-methoxy-benzylidene-hydrazinocarbonyl)-phenyl]-3-{[(2-hydroxy-ethyl)-methyl-amino]-methyl}-benzamide] | < 300
26 | COc1ccc(/C=N/NC(=O)c2cc(Cl)ccc2NC(=O)c2cccc(CN(C)CCO)c2)cc1 [Compound 401, N-[4-Chloro-2-(4-methoxy-benzylidene-hydrazinocarbonyl)-phenyl]-3-{[(2-hydroxy-ethyl)-methyl-amino]-methyl}-benzamide] | 6130
27 | CN(CCO)Cc1cccc(C(=O)Nc2ccc(Cl)cc2C(=O)N/N=C/c2cccc(O)c2)c1 [Compound 402, N-[4-Chloro-2-(3-hydroxy-benzylidene-hydrazinocarbonyl)-phenyl]-3-{[(2-hydroxy-ethyl)-methyl-amino]-methyl}-benzamide] | 14100
